How the values were obtained:
[1] = tested on: DBTRG-05MG cells (human GBM); experiment: Matrigel invasion chamber and PET membrane migration assay; type: cell-based; settings: 24 hours
Procedure: The invasion of DBTRG-05MG cells was examined using a BioCoat matrigel invasion chamber system (BD Bioscience, Bedford, Mass.). The BD matrigel Matrix is composed of laminin, collagen IV, nidogen/entrctin, and proteoglycan on polyethylene terephthalate (PET) membranes containing 8 μm pores. In the in vitro migration assay, low pore density PET track-etched membrane on Falcon culture insert (BD Bioscience) was applied. The membrane was placed between the upper and lower wells of a Matrigel chamber or Falcon culture inserts. The cells were first resuspended in PRMI 1640 containing 10% fetal bovine serum and seeded into the upper wells of the chamber (50,000 cells per well). After incubating for 24 hours at 37° C., the cells that invaded or migrated through the membrane were stained with Liu stain (Handsel Technologies, Inc., Taipei, Taiwan) and counted under a microscopy. Each experiment was repeated thrice.

[2] = tested on: Axl receptor tyrosine kinase (RTK); experiment: RT-PCR and Western blot of Axl expression in GBM cells; type: cell-based
Procedure: Reverse transcriptase-polymerase chain reaction (RT-PCR) was used to examine the effect of z-Bdph on the gene expression profile in GBM cells to elucidate the possible mechanisms of z-Bdph's inhibition of malignant brain tumor.
Western Blot assays were also carried out to examine the Axl protein level of the GBM cells in the presence of z-Bdph.

[3] = tested on: Nur77 in DBTRG-05NG cells (human GBM cells); experiment: Nur77 translocation by immunostaining, fluorescence microscopy; type: cell-based; settings: 100 μg/mL, 24 hours
Procedure: Whether translocation of Nur77 occurred in response to z-Bdph was examined. DBTRG-05NG cells (human GBM cells) were treated with Bdph (100 μg/mL) for 24 hours, then immunostained with anti-Nur77 antibody followed by corresponding Rhodamine-conjugated anti-IgG secondary antibody. Simultaneously, cells were stained with DAPI to display the nuclei. The fluorescent images were visualized with a fluorescence microscope.

Nur77 = experiment: RT-PCR of orphan receptor Nur77 mRNA expression in RG2 cells; type: cell-based, rat; settings: IC50 concentration of z-Bdph, 0, 0.5, 1, 3 and 6 h
Procedure: To confirm the results of the oligodeoxynucleotide-based microarray analysis, expression of the orphan receptors NOR-1, Nurr1, and Nur77 was examined in z-Bdph-treated RG2 cells by RT-PCR.
RG2 cells were incubated with IC50 concentration of z-Bdph for various time periods (0, 0.5, 1, 3, and 6 h). After incubation, cells were collected and total RNA isolated. Expression of GADPH was used as an internal control.

JNK, AKT, ERK = experiment: Western blot of signaling pathway phosphorylation in RG2 cells; type: cell-based, rat; settings: 100 μg/ml, treatment for 1 hour
Procedure: Finally, signaling pathways involved in z-Bdph-induced Nur77 gene expression were investigated. RG2 cells were treated with Bdph (100 μg/ml) for various time periods (0, 15, 30, 60, and 180 mins).

CCC/C=C1\OC(=O)c2ccccc21 [z-Bdph, (Z)-n-butylidenephthalide] was tested, and the “invasion of DBTRG-05MG cells” value ([1]; BioCoat matrigel invasion chamber) was “inhibited migration and invasion of DBTRG-05MG cells in a dose dependent manner”, the “migration of DBTRG-05MG cells” value ([1]; PET track-etched membrane) was “inhibited migration and invasion of DBTRG-05MG cells in a dose dependent manner” and the “mRNA expression of Axl receptor tyrosine kinase” value ([2]; RT-PCR) was “down-regulated”. For the same compound, the Axl protein level ([2]; Western blot) was “reduced”, the “translocation of Nur77” value [3] was “Nur77 was translocated from the nucleus to the cytoplasm” and the “mRNA expression of Nur77” value (Nur77) was “induced in the cells in a time-dependent manner”. For the same compound, the “phosphorylation of JNK, AKT, ERK” value (JNK, AKT, ERK) was “JNK, AKT, ERK were significantly phosphorylated”.

Source: US9585864B2, “Anticancer formulation” (National Dong Hwa University, priority 2010, dated 2017)
